For data set [1], the system named is HCT-116. Kind of data set: Cytotoxicity against human HCT-116 cells assessed as reduction in cell viability incubated for 24 hrs by MTT assay. To be noted: HCT-116, 24 h. Type of data set: functional, cell-based. In general terms: Tetrazolium dyes change colour on reduction, which living cells bring about.
Data set [2] deals with MCF7. Kind of data set: Cytotoxicity against human MCF7 cells assessed as reduction in cell growth incubated for 24 hrs by MTT assay. As to conditions: MCF7, 24 h. Type of data set: functional, cell-based.
Data set [3] is described as follows: Cytotoxicity against HUVEC cells. Type of data set: toxicity, cell-based. As to conditions: human.
For data set [4], the system named is HL-60. Briefly: Cytotoxicity against human HL-60 cells assessed as reduction in cell growth incubated for 24 hrs by MTT assay. To be noted: HL-60, 24 h. Type of data set: functional, cell-based.
Data set [5] is described as follows: Growth inhibition of human Melanoma cell. Type of data set: functional.
Data set [6] can be described thus: Growth inhibition of human Non-small cell lung cancer cell line. It is filed as functional.
Another data set relates to CNS carcinoma cell. Briefly: Growth inhibition of human CNS carcinoma cell. It is filed as functional.
Data set [7] is described as follows: Growth inhibition of human Colon cancer cell line. It is filed as functional.
The subject of a further data set is Leukemia cell. Briefly: Growth inhibition of human Leukemia cell. Type of data set: functional.
The test system of data set [8] is HepG2. Kind of data set: Antiproliferative activity against human HepG2 cells assessed as reduction in cell viability incubated for 48 hrs by CCK-8 assay. Type of data set: functional, cell-based. As to conditions: HepG2, 48 h.
The subject of another data set is U-251. Kind of data set: Antiproliferative activity against human U-251 cells assessed as reduction in cell viability incubated for 48 hrs by CCK-8 assay. It is filed as functional, cell-based. As to conditions: U-251, 48 h.
Data set [9] deals with A549. Briefly: Antiproliferative activity against human A549 cells assessed as reduction in cell viability incubated for 48 hrs by CCK-8 assay. Type of data set: functional, cell-based. To be noted: A549, 48 h.
The next data set has as its system BXPC-3. Briefly: Antiproliferative activity against human BXPC-3 assessed as reduction in cell growth. Type of data set: functional, cell-based.
The subject of data set [10] is A549. Kind of data set: Cytotoxicity against human A549 cells assessed as reduction in cell growth. It is filed as functional, cell-based.
The test system of data set [11] is HepG2. Briefly: Antiproliferative activity against human HepG2 cells. It is filed as functional, cell-based.
A further data set relates to DU-145. Kind of data set: Anticancer activity against human DU-145 cells. Type of data set: functional, cell-based.
The test system of a further data set is PC-3. Kind of data set: Anticancer activity against human PC-3 cells. Type of data set: functional, cell-based.
Data set [12] deals with HepG2. Kind of data set: Anticancer activity against human HepG2 cells. Type of data set: functional, cell-based.
The test system of data set [13] is MCF7. Kind of data set: Anticancer activity against human MCF7 cells. Type of data set: functional, cell-based.
The nature of data set [14]: Anticancer activity against human UKF-NB-3 cells by MTT assay. Type of data set: functional, cell-based.
The subject of data set [15] is A549. Kind of data set: Anticancer activity against human A549 cells by MTT assay. Type of data set: functional, cell-based.
For a further data set, the system named is NCI-H1299. Briefly: Anticancer activity against human NCI-H1299 cells by MTT assay. It is filed as functional, cell-based.
Data set [16] deals with MCF7. Briefly: Antiproliferative activity against human MCF7 cells assessed as reduction in cell viability incubated for 72 hrs by MTT assay. Type of data set: functional, cell-based. To be noted: MCF7, 72 h.
Data set [17] deals with A549. Briefly: Antiproliferative activity against human A549 cells assessed as reduction in cell viability incubated for 72 hrs by MTT assay. It is filed as functional, cell-based. To be noted: A549, 72 h.
The test system of data set [18] is HL-60. Kind of data set: Antiproliferative activity against human HL-60 cells assessed as reduction in cell viability incubated for 72 hrs by MTT assay. Type of data set: functional, cell-based. To be noted: HL-60, 72 h.
The subject of the next data set is Jurkat. Briefly: Antiproliferative activity against human Jurkat cells assessed as reduction in cell viability incubated for 72 hrs by MTT assay. Type of data set: functional, cell-based.
A further data set concerns HeLa. Briefly: Antiproliferative activity against human HeLa cells assessed as reduction in cell viability incubated for 72 hrs by MTT assay. It is filed as functional, cell-based.
The next data set relates to HT-29. Kind of data set: Antiproliferative activity against human HT-29 cells assessed as reduction in cell viability incubated for 72 hrs by MTT assay. To be noted: HT-29, 72 h. It is filed as functional, cell-based.
Another data set concerns RS4-11. Kind of data set: Antiproliferative activity against human RS4-11 cells assessed as reduction in cell viability incubated for 72 hrs by MTT assay. It is filed as functional, cell-based. As to conditions: RS4-11, 72 h.
In a further data set the target is Tubulin. Kind of data set: Inhibition of tubulin polymerization (unknown origin). It is filed as protein-complex assay, Homo sapiens.
Another data set deals with COLO 205. Briefly: Cytotoxicity against human COLO 205 cells assessed as reduction in cell viability by MTT assay. Type of data set: functional, cell-based.
Data set [19] deals with A549. Kind of data set: Cytotoxicity against human A549 cells assessed as reduction in cell viability by MTT assay. Type of data set: functional, cell-based.
The test system of another data set is A2780. Kind of data set: Cytotoxicity against human A2780 cells assessed as reduction in cell viability by MTT assay. Type of data set: functional, cell-based.
Data set [20] has as its system MCF7. Kind of data set: Cytotoxicity against human MCF7 cells assessed as reduction in cell viability by MTT assay. Type of data set: functional, cell-based.
A further data set relates to MDA-MB-231. Kind of data set: Antiproliferative activity against human MDA_MB-231 cells. It is filed as functional, cell-based.
The nature of data set [21]: Antiproliferative activity against mouse 4T1-Luc cells. Type of data set: functional, cell-based.
For data set [22], the system named is MCF7. Kind of data set: Cytotoxicity against human MCF7 cells after 24 hrs by MTT assay. Type of data set: functional, cell-based. As to conditions: MCF7, 24 h.
Data set [23] is described as follows: Cytotoxicity against human MCF-10A cells measured after 24 hrs by MTT assay. It is filed as toxicity, cell-based.
The test system of data set [24] is HepG2. Briefly: Cytotoxicity against human HepG2 cells after 24 hrs by MTT assay. Type of data set: functional, cell-based. To be noted: HepG2, 24 h.
For data set [25], the system named is HCT-116. Briefly: Cytotoxicity against human HCT-116 cells after 24 hrs by MTT assay. It is filed as functional, cell-based. To be noted: HCT-116, 24 h.

Our source for the IC50 and GI50 values is ChEMBL document CHEMBL6074649, “An insight into recent developments in imidazole based heterocyclic compounds as anticancer agents: Synthesis, SARs, and mechanism of actions” (Eur J Med Chem, 2024).

Structures are written as SMILES. Converted amounts (≈) assume the structure as drawn.

One may read the IC50 as the concentration needed to halve the response being measured. For orientation: GI50 means the concentration giving 50% growth inhibition. The low end stands for greater sensitivity of the cells, the high end for lower sensitivity of the cells.

On to `S=c1[nH]c(-n2nnc3ccccc32)cn1-c1ccc(Cl)cc1Cl`, for which the IC50 with HCT-116 [1] was 240 nM; in the data set on MCF7 [2] it was 580 nM; in [3], 13.6 µM; in the data set with HL-60 [4], 400 nM.
As for `Oc1ccc(-n2cnc(-c3cc(O)cc(O)c3)c2)cc1`, the GI50 in data set [5] turned out to be 12.9 µM; in data set [6] it was 28.8 µM; in the data set on CNS carcinoma cell it was 11.5 µM; in data set [7], 11.5 µM; in the data set with Leukemia cell it was 4.1 µM.
Take `CN(C)c1ccc(/C=C/c2ncc([N+](=O)[O-])n2CCOC(=O)c2nccc3ccccc23)cc1`: the IC50 came to 170 nM in the data set on HepG2 [8], 140 nM in the data set with U-251 and 430 nM in the data set with A549 [9].
In the case of `COc1ccc2cc([C@H](C)C3=NC(Cc4ccccc4)C(=O)N3/N=C/c3ccc(N(C)C)cc3)ccc2c1` (stereo not given in full), the IC50 in the data set on BXPC-3 is 18.3 µM; in the data set on A549 [10], 9.4 µM.
In the data set with HepG2 [11], `CCOC(=O)c1nn(-c2ccc(Cl)cc2)/c(=N\NC2=NC(c3ccccc3)(c3ccccc3)C(=O)N2)s1` had a half-inhibitory concentration (IC50) of 720 nM.
In the case of `Cc1nc([N+](=O)[O-])c(N2CCN(CCCBr)CC2)n1Cc1ccccc1`, the IC50 was 53.7 µM in the data set with DU-145, 48.6 µM in the data set with PC-3, 32.1 µM in the data set on HepG2 [12] and 46.2 µM in the data set with MCF7 [13].
As for `C#Cc1cccc(Nc2ncnc3cc(OCCOC)c(OCCOC)cc23)c1` [ERLOTINIB], the IC50 in the data set on BXPC-3 was found to be 9.8 µM; in the data set with A549 [10] it was 25.2 µM.
`COc1ccc(C2=N[C@H](c3ccc(Cl)cc3)[C@H](c3ccc(Cl)cc3)N2C(=O)N2CCNC(=O)C2)c(OC(C)C)c1`: the values for the IC50 (in data set [14]; in the data set with A549 [15]; in the data set on NCI-H1299) were 5.2 µg/mL (≈ 8.94 µM), 11.1 µg/mL (≈ 19.1 µM) and above 100 µg/mL, respectively.
For `CCOc1ccc(-c2nccn2-c2cc(OC)c(OC)c(OC)c2)cc1Cl`, the IC50 in the data set on MCF7 [16] was determined as 0.7 nM; in the data set on A549 [17], 0.57 nM; in the data set with HL-60 [18] it was 1.8 nM; in the data set with Jurkat it was 0.9 nM; with HeLa, 3.8 nM; in the data set with HT-29, 0.4 nM. The IC50 worked out at 1.2 nM in the data set with RS4-11 and 870 nM on Tubulin.
For the compound `O=[N+]([O-])c1cccc(S(=O)(=O)n2ccnc2-c2ccon2)c1`, the IC50 with COLO 205 is 1900 nM; in the data set with A549 [19] it was 1140 nM; in the data set on A2780 it was 630 nM; with MCF7 [20] it was 1030 nM.
With `Cc1[nH]c(SCc2c(F)cccc2F)nc1Cc1ccccc1`, the results for the IC50 (in the data set with MDA-MB-231; in data set [21]) were 9.5 µM and 6.66 µM, respectively.
For the compound `O=C(OCCn1c([N+](=O)[O-])cnc1/C=C/c1ccc2ccccc2c1)c1nccc2ccccc12`, the concentration for half-maximal inhibition (IC50) with HepG2 [8] was 110 nM; in the data set with U-251, 100 nM; in the data set on A549 [9], 320 nM.
Turning to `COc1ccc(-c2c[nH]c(=S)n2/N=C/c2ccccc2O)cc1`, the IC50 worked out at 1070 nM in the data set on MCF7 [22], 1300 nM in the data set with HepG2 [24] and 3.99 µM in the data set with HCT-116 [25]. Moreover, the IC50 at 24 h in data set [23] turned out to be 27.8 µM.
